According to patent US5112806A, “Antibiotic, mersacidin, a process for the preparation thereof and the use thereof as a pharmaceutical” (Hoechst Aktiengesellschaft, priority 1988, dated 1992):

Legend:
S. aureus SG 511 [1] = assay: In vivo activity against S. aureus SG 511 abscess in rats; conditions: infecting dose 2 × 10^-9 CFU in 5% mucin under the skin, 50 mg/kg × 7 days
Protocol: In vivo activity of mersacidin against S. aureus SG 511 abscess in rats, compared with vancomycin.
Infecting dose : […] in 5% mucin, injected under the skin.
Treatment: 50 mg/kg × 7 days

S. aureus E 710 (MRSA) = assay: In vivo activity against S. aureus E 710 (MRSA) in mice; conditions: S. aureus E 710 (MRSA), 5 × 10^9 CFU/mouse (1 MLD); for Approx. ED50 / Approx. ED90: s.c.
Protocol: On subcutaneous administration in a dose of 9.37 and 25.00 mg/kg to laboratory mice infected experimentally with Staphylococcus aureus SG 511 and S. aureus 710 (resistant to methicillin), […]. […]

S. aureus SG 511 [2] = assay: In vivo activity against S. aureus SG 511 infection in mice
S. aureus SG 511 [3] = assay: as above; conditions: S. aureus SG 511, 1.75 × 10^9 CFU/mouse; for Number of mice treated/cured / percentage rate of cure: 9.37 mg/kg × 3, s.c.
Protocol: On subcutaneous administration in a dose of 9.37 and 25.00 mg/kg to laboratory mice infected experimentally with Staphylococcus aureus SG 511 and S. aureus 710 (resistant to methicillin), […].
In vivo activity of mersacidin against S. aureus SG 511
infection in mice compared with vancomycin.
Inoculation medium used: 1.75 × 10^9 CFU/mouse

Streptococcus faecalis [4] = assay: MIC, growth inhibition in vitro (second entry, no. 27); type: cell-based; conditions: Streptococcus faecalis (Table 3 no. 27)
Text: (§1) The biological properties of mersacidin as the MIC values required for inhibition of the growth of various microorganisms are listed in Table 3.

[5] = Animal mortality after subcutaneous dose; type: in vivo; conditions: laboratory mice; 500 mg/kg subcutaneous, highest concentration tested
[6] = tested on: Staphylococcus aureus SG 511; assay: MIC, growth inhibition in vitro; type: cell-based
Text: as §1

S. aureus 710 = assay: MIC, growth inhibition in vitro; type: cell-based
Text: as §1

S. aureus E 712 = assay: MIC, growth inhibition in vitro; type: cell-based
Text: as §1

S. aureus R 85 = assay: MIC, growth inhibition in vitro; type: cell-based
Text: as §1

S. epidermidis MSSE = assay: MIC, growth inhibition in vitro; type: cell-based
Text: as §1

Listeria monocyctogenes = assay: MIC, growth inhibition in vitro; type: cell-based
Text: as §1

Streptococcus bovis = assay: MIC, growth inhibition in vitro; type: cell-based
Text: as §1

Str. D 21777 = assay: MIC, growth inhibition in vitro; type: cell-based
Text: as §1

Micrococcus luteus = assay: MIC, growth inhibition in vitro; type: cell-based
Text: as §1

S. aureus 789 = assay: MIC, growth inhibition in vitro; type: cell-based
Text: as §1

Propionibacterium genes = assay: MIC, growth inhibition in vitro; type: cell-based
Text: as §1

Streptococcus faecalis [7] = assay: MIC, growth inhibition in vitro; type: cell-based; conditions: Streptococcus faecalis (Table 3 no. 17)
Text: as §1

Group C Streptococci = assay: MIC, growth inhibition in vitro; type: cell-based
Text: as §1

[8] = tested on: Staphylococcus aureus 209P; assay: MIC, growth inhibition in vitro; type: cell-based
Text: as §1

S. aureus 3066 = assay: MIC, growth inhibition in vitro; type: cell-based
Text: as §1

S. aureus 20666 = assay: MIC, growth inhibition in vitro; type: cell-based
Text: as §1

Group B Streptococci = assay: MIC, growth inhibition in vitro; type: cell-based
Text: as §1

S. aureus 20424 = assay: MIC, growth inhibition in vitro; type: cell-based
Text: as §1

Group A Streptococci = assay: MIC, growth inhibition in vitro; type: cell-based
Text: as §1

S. aureus 285 = assay: MIC, growth inhibition in vitro; type: cell-based
Text: as §1

S. aureus 503 = assay: MIC, growth inhibition in vitro; type: cell-based
Text: as §1

Streptococcus pneumoniae = assay: MIC, growth inhibition in vitro; type: cell-based
Text: as §1

Bacillus subtilis = assay: MIC, growth inhibition in vitro; type: cell-based
Text: as §1

S. epidermidis MRSE = assay: MIC, growth inhibition in vitro; type: cell-based
Text: as §1

[9] = tested on: Peptostreptococci species; assay: MIC, growth inhibition in vitro; type: cell-based
Text: as §1

S. aureus 722 = assay: MIC, growth inhibition in vitro; type: cell-based
Text: as §1

Cornybacterium JK = assay: MIC, growth inhibition in vitro; type: cell-based
Text: as §1

S. aureus E 88 = assay: MIC, growth inhibition in vitro; type: cell-based
Text: as §1

S. aureus 20240 = assay: MIC, growth inhibition in vitro; type: cell-based
Text: as §1

Streptococcus viridans = assay: MIC, growth inhibition in vitro; type: cell-based
Text: as §1

Group G Streptococci = assay: MIC, growth inhibition in vitro; type: cell-based
Text: as §1

[10] = mice, S. aureus SG 511, 1.75 × 10^9 CFU/mouse, 3.12 mg/kg × 3, s.c.
[11] = mice, S. aureus SG 511, 1.75 × 10^9 CFU/mouse, 6.25 mg/kg × 3, s.c.
[12] = mice, S. aureus SG 511, 1.75 × 10^9 CFU/mouse, 12.5 mg/kg × 3, s.c.
[13] = mice, S. aureus SG 511, 1.75 × 10^9 CFU/mouse, 18.75 mg/kg × 3, s.c.
[14] = mice, S. aureus SG 511, 1.75 × 10^9 CFU/mouse, 0.80 mg/kg × 3, s.c.
[15] = mice, S. aureus SG 511, 1.75 × 10^9 CFU/mouse, 1.60 mg/kg × 3, s.c.

Compound: CN[C@H](CC(C)C)C(=O)N[C@H]1C(=O)N[C@@H](CC(N)=O)C(=O)N[C@H]2C(=O)N[C@H]3C(=O)N[C@H](C(=O)N[C@H](C(=O)O)c4cc(O)cc(O)c4-c4cc3ccc4O)[C@H](O)c3ccc(c(Cl)c3)Oc3cc2cc(c3O[C@@H]2O[C@H](CO)[C@@H](O)[C@H](O)[C@H]2O[C@H]2C[C@](C)(N)[C@H](O)[C@H](C)O2)Oc2ccc(cc2Cl)[C@H]1O [Vancomycin, reference compound]
- reduces bacterial counts by (S. aureus SG 511 [1]): 0.79 log10 CFU/ml
- Number of mice treated/cured (S. aureus E 710 (MRSA); 6.25 mg/kg × 3, s.c.): 0/11
- percentage rate of cure (S. aureus E 710 (MRSA); 6.25 mg/kg × 3, s.c.): 0%
- Number of mice treated/cured (S. aureus E 710 (MRSA); 12.50 mg/kg × 3, s.c.): 3/11
- percentage rate of cure (S. aureus E 710 (MRSA); 12.50 mg/kg × 3, s.c.): 27%
- Number of mice treated/cured (S. aureus E 710 (MRSA); 25.00 mg/kg × 3, s.c.): 14/21
- percentage rate of cure (S. aureus E 710 (MRSA); 25.00 mg/kg × 3, s.c.): 67%
- Number of mice treated/cured (S. aureus E 710 (MRSA); 37.00 mg/kg × 3, s.c.): 6/6
- percentage rate of cure (S. aureus E 710 (MRSA); 37.00 mg/kg × 3, s.c.): 100%
- Approx. ED50 (S. aureus E 710 (MRSA)): ~18.94 mg/kg × 3
- Approx. ED90 (S. aureus E 710 (MRSA)): ~32.01 mg/kg × 3
- Number of mice treated/cured (S. aureus SG 511 [2]; [10]): 2/41
- percentage rate of cure (S. aureus SG 511 [2]; [10]): 5%
- Number of mice treated/cured (S. aureus SG 511 [2]; [11]): 13/44
- percentage rate of cure (S. aureus SG 511 [2]; [11]): 29%
- Number of mice treated/cured (S. aureus SG 511 [2]; [12]): 59/61
- percentage rate of cure (S. aureus SG 511 [2]; [12]): 97%
- Number of mice treated/cured (S. aureus SG 511 [2]; [13]): 71/71
- percentage rate of cure (S. aureus SG 511 [2]; [13]): 100%
- Number of mice treated/cured (S. aureus SG 511 [3]): 48/53
- percentage rate of cure (S. aureus SG 511 [3]): 85%
- Approx. ED50 (S. aureus SG 511 [3]; s.c.): ~7.20 mg/kg × 3
- Approx. ED90 (S. aureus SG 511 [3]; s.c.): ~9.37 mg/kg × 3

Compound: mersacidin
- MIC values (Streptococcus faecalis [4]): 64,0 μg/ml
- reduces bacterial counts by (S. aureus SG 511 [1]): 1.4 log10 CFU/ml
- Number of mice treated/cured (S. aureus E 710 (MRSA); 6.25 mg/kg × 3, s.c.): 1/10
- percentage rate of cure (S. aureus E 710 (MRSA); 6.25 mg/kg × 3, s.c.): 10%
- Number of mice treated/cured (S. aureus E 710 (MRSA); 9.37 mg/kg × 3, s.c.): 4/10
- percentage rate of cure (S. aureus E 710 (MRSA); 9.37 mg/kg × 3, s.c.): 40%
- Number of mice treated/cured (S. aureus E 710 (MRSA); 12.50 mg/kg × 3, s.c.): 10/16
- percentage rate of cure (S. aureus E 710 (MRSA); 12.50 mg/kg × 3, s.c.): 63%
- Number of mice treated/cured (S. aureus E 710 (MRSA); 25.00 mg/kg × 3, s.c.): 12/12
- percentage rate of cure (S. aureus E 710 (MRSA); 25.00 mg/kg × 3, s.c.): 100%
- Approx. ED50 (S. aureus E 710 (MRSA)): ~10.81 mg/kg × 3
- Approx. ED90 (S. aureus E 710 (MRSA)): ~19.59 mg/kg × 3
- activity in the in vivo system of laboratory mice (S. aureus SG 511 [2]; mice infected with S. aureus SG 511 and S. aureus 710 (resistant to methicillin), 9.37 and 25.00 mg/kg s.c.): good activity
- Number of mice treated/cured (S. aureus SG 511 [2]; [14]): 0/27
- percentage rate of cure (S. aureus SG 511 [2]; [14]): 0%
- Number of mice treated/cured (S. aureus SG 511 [2]; [15]): 3/24
- percentage rate of cure (S. aureus SG 511 [2]; [15]): 12%
- Number of mice treated/cured (S. aureus SG 511 [2]; [10]): 18/27
- percentage rate of cure (S. aureus SG 511 [2]; [10]): 67%
- Number of mice treated/cured (S. aureus SG 511 [2]; [11]): 38/40
- percentage rate of cure (S. aureus SG 511 [2]; [11]): 95%
- Approx. ED90 (S. aureus SG 511 [2]; mice, S. aureus SG 511, 1.75 × 10^9 CFU/mouse, s.c.): ~5.38 mg/kg × 3
- Number of mice treated/cured (S. aureus SG 511 [3]): 53/53
- percentage rate of cure (S. aureus SG 511 [3]): 100%
- Approx. ED50 (S. aureus SG 511 [3]; s.c.): ~2.59 mg/kg × 3
- animal mortality [5]: no animal mortality was observed
- MIC values [6]: 0,39-0,78 μg/ml
- MIC values (S. aureus 710): 0,39-0,78 μg/ml
- MIC values (S. aureus E 712): 3,12-6,25 μg/ml
- MIC values (S. aureus R 85): 0,39-0,78 μg/ml
- MIC values (S. epidermidis MSSE): 0,5-16,0 μg/ml
- MIC values (Listeria monocyctogenes): 16,0-64,0 μg/ml
- MIC values (Streptococcus bovis): 4,0-32,0 μg/ml
- MIC values (Str. D 21777): 1,56-3,12 μg/ml
- MIC values (Micrococcus luteus): 0,0975-0,195 μg/ml
- MIC values (S. aureus 789): 0.78 to 1.56 µg/mL
- MIC values (Propionibacterium genes): 1,0-16,0 μg/ml
- MIC values (Streptococcus faecalis [7]): 0,0975-0,195 μg/ml
- MIC values (Group C Streptococci): 2,0-64 μg/ml
- MIC values [8]: 0.78 to 1.56 µg/mL
- MIC values (S. aureus 3066): 12.50 to 25.00 µg/mL
- MIC values (S. aureus 20666): 3,12-6,25 μg/ml
- MIC values (Group B Streptococci): 1,0-8,0 μg/ml
- MIC values (S. aureus 20424): 1.56 to 3.12 µg/mL
- MIC values (Group A Streptococci): 0,5-8,0 μg/ml
- MIC values (S. aureus 285): 0,78-1,56 μg/ml
- MIC values (S. aureus 503): 0.78 to 1.56 µg/mL
- MIC values (Streptococcus pneumoniae): 1,0-4,0 μg/ml
- MIC values (Bacillus subtilis): 0,39-0,78 μg/ml
- MIC values (S. epidermidis MRSE): 0,5-16,0 μg/ml
- MIC values [9]: 0,5-8,0 μg/ml
- MIC values (S. aureus 722): 3.12 to 6.25 µg/mL
- MIC values (Cornybacterium JK): 2,0-4,0 μg/ml
- MIC values (S. aureus E 88): 6.25 to 12.50 µg/mL
- MIC values (S. aureus 20240): 3.12 to 6.25 µg/mL
- MIC values (Streptococcus viridans): 0,5-32,0 μg/ml
- MIC values (Group G Streptococci): 2,0-8,0 μg/ml
